Data as given in patent US11180470B2, “Herbicidal pyrimidine compounds” (BASF SE, priority 2016, dated 2021).

Legend:
[1] = test system: ECHCG; test: greenhouse experiment, pre-emergence treatment; format: in vivo, Echinocloa crus-galli; settings: pre-emergence method, scale from 0 to 100
Description: (§1) The seeds of the test plants were sown separately for each species. For the pre-emergence treatment, the active ingredients, which had been suspended or emulsified in water, were applied directly after sowing by means of finely distributing nozzles. The containers were irrigated gently to promote germination and growth and subsequently covered with transparent plastic hoods until the plants had rooted. This cover caused uniform germination of the test plants, unless this had been impaired by the active ingredients. Depending on the species, the plants were kept at 10-25° C. or 20-35° C., respectively. The test period extended over 2 to 4 weeks. During this time, the plants were tended, and their response to the individual treatments was evaluated. Evaluation was carried out using a scale from 0 to 100. 100 means no emergence of the plants, or complete destruction of at least the aerial moieties, and 0 means no damage, or normal course of growth. A good herbicidal activity is given at values of at least 70 and a very good herbicidal activity is given at values of at least 85. The plants used in the greenhouse experiments were of the following species: [table]

[2] = test system: APESV; test: greenhouse experiment, pre-emergence treatment; format: in vivo, Apera spica-venti; settings: pre-emergence method, scale from 0 to 100
Description: as §1

[3] = test system: ECHCG; test: greenhouse experiment, post-emergence treatment; format: in vivo, Echinocloa crus-galli; settings: post-emergence method, scale from 0 to 100
Experimental: The seeds of the test plants were sown separately for each species. […] For this purpose, the test plants were either sown directly and grown in the same containers, or they were first grown separately as seedlings and transplanted into the test containers a few days prior to treatment. Depending on the species, the plants were kept at 10-25° C. or 20-35° C., respectively. The test period extended over 2 to 4 weeks. During this time, the plants were tended, and their response to the individual treatments was evaluated. Evaluation was carried out using a scale from 0 to 100. 100 means no emergence of the plants, or complete destruction of at least the aerial moieties, and 0 means no damage, or normal course of growth. A good herbicidal activity is given at values of at least 70 and a very good herbicidal activity is given at values of at least 85. The plants used in the greenhouse experiments were of the following species: [table]

[4] = test system: AVEFA; test: greenhouse experiment, post-emergence treatment; format: in vivo, Avena fatua; settings: post-emergence method, scale from 0 to 100
Description: (§2) The culture containers used were plastic flowerpots containing loamy sand with approximately 3.0% of humus as the substrate. The seeds of the test plants were sown separately for each species.
(§3) For the post-emergence treatment, the test plants were first grown to a height of 3 to 15 cm, depending on the plant habit, and only then treated with the active ingredients which had been suspended or emulsified in water. For this purpose, the test plants were either sown directly and grown in the same containers, or they were first grown separately as seedlings and transplanted into the test containers a few days prior to treatment.
(§4) Depending on the species, the plants were kept at 10-25° C. or 20-35° C., respectively.
(§5) The test period extended over 2 to 4 weeks. During this time, the plants were tended, and their response to the individual treatments was evaluated.
(§6) Evaluation was carried out using a scale from 0 to 100. 100 means no emergence of the plants, or complete destruction of at least the aerial moieties, and 0 means no damage, or normal course of growth. A good herbicidal activity is given at values of at least 70 and a very good herbicidal activity is given at values of at least 85.
(§7) The plants used in the greenhouse experiments were of the following species: […]

[5] = test system: ALOMY; test: greenhouse experiment, post-emergence treatment; format: in vivo, Alopecurus myosuroides; settings: post-emergence method, scale from 0 to 100
Description: as §2, §3, §4, §5, §6, §7

| Structure (SMILES) | herbicidal activity against ECHCG ([1]; application rate 2000 g/ha) | herbicidal activity against APESV ([2]; application rate 2000 g/ha) | herbicidal activity against ECHCG ([3]; application rate 2000 g/ha) | herbicidal activity against ALOMY ([5]; application rate 2000 g/ha) | also measured |
| --- | --- | --- | --- | --- | --- |
| Cc1cscc1-c1cnc(C2CC2)nc1C(=O)O [Example 6] | very good (a very good herbicidal activity is given at values of at least 85) | very good (a very good herbicidal activity is given at values of at least 85) | very good (a very good herbicidal activity is given at values of at least 85) |  |  |
| O=C(O)c1nc(C2CC2)ncc1-c1ccoc1Br [Example 14] |  |  |  |  | herbicidal activity against ECHCG ([1]; application rate 1000 g/ha): very good (a very good herbicidal activity is given at values of at least 85); herbicidal activity against APESV ([2]; application rate 1000 g/ha): good (A good herbicidal activity is given at values of at least 70) |
| COC(=O)c1nc(C2CC2)ncc1-c1ccsc1Cl [Example 11] |  |  |  |  | herbicidal activity against AVEFA ([4]; application rate 1000 g/ha): good (A good herbicidal activity is given at values of at least 70); herbicidal activity against ECHCG ([1]; application rate 1000 g/ha): very good (a very good herbicidal activity is given at values of at least 85); herbicidal activity against ALOMY ([5]; application rate 1000 g/ha): very good (a very good herbicidal activity is given at values of at least 85) |
| COC(=O)c1nc(C2CC2)ncc1-c1ccsc1C [Example 5] | very good (a very good herbicidal activity is given at values of at least 85) |  |  |  |  |
| O=C(O)c1nc(C2CC2)ncc1-c1ncc(F)cc1Cl [Example 42] | very good (a very good herbicidal activity is given at values of at least 85) | very good (a very good herbicidal activity is given at values of at least 85) | very good (a very good herbicidal activity is given at values of at least 85) | very good (a very good herbicidal activity is given at values of at least 85) | herbicidal activity against AVEFA ([4]; application rate 2000 g/ha): very good (a very good herbicidal activity is given at values of at least 85) |
| O=C(O)c1nc(C2CC2)ncc1-c1ccoc1Cl [Example 13] | very good (a very good herbicidal activity is given at values of at least 85) | very good (a very good herbicidal activity is given at values of at least 85) | very good (a very good herbicidal activity is given at values of at least 85) | very good (a very good herbicidal activity is given at values of at least 85) |  |
| COC(=O)c1nc(C2CC2)ncc1-c1ccoc1Cl [Example 15] | good (A good herbicidal activity is given at values of at least 70) |  |  |  |  |
| CCc1ncc(-c2ncccc2F)c(C(=O)O)n1 [Example 50] |  |  |  |  | herbicidal activity against ECHCG ([3]; application rate 1000 g/ha): very good (a very good herbicidal activity is given at values of at least 85) |
| O=C(O)c1nc(C2CC2)ncc1-c1cccnc1Br [Example 20] | very good (a very good herbicidal activity is given at values of at least 85) | very good (a very good herbicidal activity is given at values of at least 85) | very good (a very good herbicidal activity is given at values of at least 85) |  | herbicidal activity against AVEFA ([4]; application rate 2000 g/ha): very good (a very good herbicidal activity is given at values of at least 85) |
| O=C(O)c1nc(C2CC2)ncc1-c1nc(C(F)(F)F)ccc1F [Example 62] | very good (a very good herbicidal activity is given at values of at least 85) | very good (a very good herbicidal activity is given at values of at least 85) | very good (a very good herbicidal activity is given at values of at least 85) | very good (a very good herbicidal activity is given at values of at least 85) | herbicidal activity against AVEFA ([4]; application rate 2000 g/ha): very good (a very good herbicidal activity is given at values of at least 85) |
| COC(=O)c1nc(C2CC2)ncc1-c1cscc1C [Example 7] | very good (a very good herbicidal activity is given at values of at least 85) |  | very good (a very good herbicidal activity is given at values of at least 85) |  |  |
| COC(=O)c1nc(C2CC2)ncc1-c1cccnc1F [Example 25] |  |  |  |  | herbicidal activity against ECHCG ([3]; application rate 1000 g/ha): very good (a very good herbicidal activity is given at values of at least 85) |
| O=C(O)c1nc(C2CC2)ncc1-c1ccsc1Cl [Example 12] |  |  |  |  | herbicidal activity against AVEFA ([4]; application rate 1000 g/ha): very good (a very good herbicidal activity is given at values of at least 85); herbicidal activity against ECHCG ([1]; application rate 1000 g/ha): very good (a very good herbicidal activity is given at values of at least 85); herbicidal activity against ALOMY ([5]; application rate 1000 g/ha): very good (a very good herbicidal activity is given at values of at least 85); herbicidal activity against APESV ([2]; application rate 1000 g/ha): very good (a very good herbicidal activity is given at values of at least 85) |
| O=C(O)c1nc(C2CC2)ncc1-c1ncccc1F [Example 23] | very good (a very good herbicidal activity is given at values of at least 85) | very good (a very good herbicidal activity is given at values of at least 85) | very good (a very good herbicidal activity is given at values of at least 85) | very good (a very good herbicidal activity is given at values of at least 85) |  |
| O=C(O)c1nc(C2CC2)ncc1-c1ccncc1F [Example 37] | very good (a very good herbicidal activity is given at values of at least 85) | good (A good herbicidal activity is given at values of at least 70) | good (A good herbicidal activity is given at values of at least 70) | good (A good herbicidal activity is given at values of at least 70) |  |
| COC(=O)c1nc(C2CC2)ncc1-c1sccc1C [Example 4] | very good (a very good herbicidal activity is given at values of at least 85) |  | very good (a very good herbicidal activity is given at values of at least 85) |  |  |
| COc1ncc(-c2ncccc2Br)c(C(=O)O)n1 [Example 51] |  |  | good (A good herbicidal activity is given at values of at least 70) | good (A good herbicidal activity is given at values of at least 70) | herbicidal activity against AVEFA ([4]; application rate 2000 g/ha): good (A good herbicidal activity is given at values of at least 70) |
| O=C(O)c1nc(C2CC2)ncc1-c1ncc(F)cc1F [Example 36] | very good (a very good herbicidal activity is given at values of at least 85) | very good (a very good herbicidal activity is given at values of at least 85) |  | very good (a very good herbicidal activity is given at values of at least 85) | herbicidal activity against AVEFA ([4]; application rate 2000 g/ha): very good (a very good herbicidal activity is given at values of at least 85) |
| Cc1sccc1-c1cnc(C2CC2)nc1C(=O)O [Example 8] | very good (a very good herbicidal activity is given at values of at least 85) | very good (a very good herbicidal activity is given at values of at least 85) |  |  |  |
| CCc1ncc(-c2ncccc2Br)c(C(=O)OC)n1 [Example 43] | very good (a very good herbicidal activity is given at values of at least 85) |  |  |  |  |
